According to ChEMBL document CHEMBL3885861, “Open TG-GATES”:

Organism: Rattus norvegicus
Experiment: Open TG-GATES - Regimen: Daily Repeat
Type: toxicity, organism-based, Sprague-Dawley
Design: regimen Daily Repeat, gender Male, age 6 weeks
Settings: in vivo, po, route gavage; for APTT / Bas / Eos / Fbg / Hb / Ht / Lym / MCH / MCHC / MCV / Mono / Neu / PT / Plat / RBC / Ret / WBC: tissue Blood; for KIDNEY_L / KIDNEY_R / KIDNEY_TOTAL: tissue Kidney; for LIVER: tissue Liver; for A/G / ALP / ALT / AST / BUN / CRE / Ca / Cl / DBIL / GLC / IP / K / LDH / Na / PL / RALB / TBIL / TC / TG / TP / gamma-GTP: tissue Plasma
[1] = 300 mg/kg, 72 h, dose level Middle, time 3 day
[2] = 300 mg/kg, […], dose level Middle, time 7 day
[3] = 300 mg/kg, […], dose level Middle, time 14 day
[4] = 300 mg/kg, […], dose level Middle, time 28 day
[5] = 1000 mg/kg, 72 h, dose level High, time 3 day
[6] = 1000 mg/kg, […], dose level High, time 7 day
[7] = 1000 mg/kg, […], dose level High, time 14 day
[8] = 1000 mg/kg, […], dose level High, time 28 day

O=C(O)c1cc(/N=N/c2ccc(S(=O)(=O)Nc3ccccn3)cc2)ccc1O [SULFASALAZINE]
TERMINAL_BW [1]: 236.9 g
APTT [1]: 18.6 s
Bas [1]: 0%
Eos [1]: 1%
Fbg [1]: 213 mg/dL
Hb [1]: 13.2 g/dL
Ht [1]: 38.4%
Lym [1]: 81.6%
MCH [1]: 21.8 pg
MCHC [1]: 34.5%
MCV [1]: 63.2 fL
Mono [1]: 2.2%
Neu [1]: 14%
PT [1]: 12.5 s
Plat [1]: 146.1 x10_4/uL
RBC [1]: 607.4 x10_4/ul
Ret [1]: 5.7%
WBC [1]: 109.3 x10_2/uL
KIDNEY_L [1]: 1 g
KIDNEY_R [1]: 1 g
KIDNEY_TOTAL [1]: 2 g
LIVER [1]: 11.1 g
A/G [1]: 1.5
ALP [1]: 1050.4 IU/L
ALT [1]: 37 IU/L
AST [1]: 69.6 IU/L
BUN [1]: 16.4 mg/dL
CRE [1]: 0.4 mg/dL
Ca [1]: 10.9 mg/dL
Cl [1]: 103.2 meq/L
DBIL [1]: 0.092 mg/dL
GLC [1]: 202.6 mg/dL
IP [1]: 6.8 mg/dL
K [1]: 3.9 meq/L
LDH [1]: 257.2 IU/L
Na [1]: 141 meq/L
PL [1]: 156.6 mg/dL
RALB [1]: 3.4 g/dL
TBIL [1]: 0.2 mg/dL
TC [1]: 81 mg/dL
TG [1]: 86.6 mg/dL
TP [1]: 5.6 g/dL
gamma-GTP [1]: 1.4 IU/L
TERMINAL_BW [2]: 264.7 g
TERMINAL_BW [3]: 309.2 g
TERMINAL_BW [4]: 365.3 g
APTT [2]: 18.5 s
Bas [2]: 0%
Eos [2]: 1%
Fbg [2]: 212.4 mg/dL
Hb [2]: 13.6 g/dL
Ht [2]: 39.4%
Lym [2]: 79.4%
MCH [2]: 21.4 pg
MCHC [2]: 34.5%
MCV [2]: 62 fL
Mono [2]: 2.6%
Neu [2]: 15.6%
PT [2]: 12.9 s
Plat [2]: 124.9 x10_4/uL
RBC [2]: 636.2 x10_4/ul
Ret [2]: 5.3%
WBC [2]: 123 x10_2/uL
APTT [3]: 18.5 s
Bas [3]: 0%
Eos [3]: 1%
Fbg [3]: 214.6 mg/dL
Hb [3]: 14.8 g/dL
Ht [3]: 41.7%
Lym [3]: 83.4%
MCH [3]: 21.2 pg
MCHC [3]: 35.4%
MCV [3]: 59.8 fL
Mono [3]: 2.6%
Neu [3]: 11.6%
PT [3]: 12.7 s
Plat [3]: 114.3 x10_4/uL
RBC [3]: 698 x10_4/ul
Ret [3]: 4.3%
WBC [3]: 109.2 x10_2/uL
APTT [4]: 18.2 s
Bas [4]: 0%
Eos [4]: 1%
Fbg [4]: 199 mg/dL
Hb [4]: 15.2 g/dL
Ht [4]: 42.2%
Lym [4]: 81.2%
MCH [4]: 20.1 pg
MCHC [4]: 35.9%
MCV [4]: 56 fL
Mono [4]: 2.4%
Neu [4]: 14.4%
PT [4]: 12.8 s
Plat [4]: 100.8 x10_4/uL
RBC [4]: 753.6 x10_4/ul
Ret [4]: 3%
WBC [4]: 88.7 x10_2/uL
KIDNEY_L [2]: 1.1 g
KIDNEY_R [2]: 1.1 g
KIDNEY_TOTAL [2]: 2.2 g
KIDNEY_L [3]: 1.2 g
KIDNEY_R [3]: 1.2 g
KIDNEY_TOTAL [3]: 2.4 g
KIDNEY_L [4]: 1.3 g
KIDNEY_R [4]: 1.3 g
KIDNEY_TOTAL [4]: 2.6 g
LIVER [2]: 11.8 g
LIVER [3]: 13 g
LIVER [4]: 13.6 g
A/G [2]: 1.7
ALP [2]: 838.8 IU/L
ALT [2]: 36.8 IU/L
AST [2]: 66.2 IU/L
BUN [2]: 15.8 mg/dL
CRE [2]: 0.4 mg/dL
Ca [2]: 10.7 mg/dL
Cl [2]: 103.6 meq/L
DBIL [2]: 0.088 mg/dL
GLC [2]: 213.8 mg/dL
IP [2]: 7 mg/dL
K [2]: 3.7 meq/L
LDH [2]: 186.6 IU/L
Na [2]: 140.8 meq/L
PL [2]: 144.4 mg/dL
RALB [2]: 3.5 g/dL
TBIL [2]: 0.1 mg/dL
TC [2]: 70.8 mg/dL
TG [2]: 83 mg/dL
TP [2]: 5.6 g/dL
gamma-GTP [2]: 1.4 IU/L
A/G [3]: 1.4
ALP [3]: 901 IU/L
ALT [3]: 37.2 IU/L
AST [3]: 64.8 IU/L
BUN [3]: 18 mg/dL
CRE [3]: 0.5 mg/dL
Ca [3]: 10.7 mg/dL
Cl [3]: 102.8 meq/L
DBIL [3]: 0.094 mg/dL
GLC [3]: 190.6 mg/dL
IP [3]: 7.1 mg/dL
K [3]: 3.6 meq/L
LDH [3]: 204.6 IU/L
Na [3]: 141 meq/L
PL [3]: 151.2 mg/dL
RALB [3]: 3.5 g/dL
TBIL [3]: 0.2 mg/dL
TC [3]: 70.4 mg/dL
TG [3]: 105.8 mg/dL
TP [3]: 6 g/dL
gamma-GTP [3]: 2 IU/L
A/G [4]: 1.5
ALP [4]: 668.8 IU/L
ALT [4]: 37.4 IU/L
AST [4]: 63.6 IU/L
BUN [4]: 18 mg/dL
CRE [4]: 0.5 mg/dL
Ca [4]: 10.3 mg/dL
Cl [4]: 103.8 meq/L
DBIL [4]: 0.082 mg/dL
GLC [4]: 214.2 mg/dL
IP [4]: 6.3 mg/dL
K [4]: 3.3 meq/L
LDH [4]: 134.4 IU/L
Na [4]: 141.8 meq/L
PL [4]: 128.6 mg/dL
RALB [4]: 3.5 g/dL
TBIL [4]: 0.1 mg/dL
TC [4]: 59.6 mg/dL
TG [4]: 92.6 mg/dL
TP [4]: 5.9 g/dL
gamma-GTP [4]: 1.2 IU/L
TERMINAL_BW [5]: 221.5 g
APTT [5]: 18 s
Bas [5]: 0%
Eos [5]: 0.8%
Fbg [5]: 215 mg/dL
Hb [5]: 14.4 g/dL
Ht [5]: 42%
Lym [5]: 87.2%
MCH [5]: 21.4 pg
MCHC [5]: 34.2%
MCV [5]: 62.4 fL
Mono [5]: 2%
Neu [5]: 8.8%
PT [5]: 13.1 s
Plat [5]: 127.1 x10_4/uL
RBC [5]: 674.2 x10_4/ul
Ret [5]: 3.4%
WBC [5]: 93.4 x10_2/uL
KIDNEY_L [5]: 1 g
KIDNEY_R [5]: 1 g
KIDNEY_TOTAL [5]: 1.9 g
LIVER [5]: 10.2 g
A/G [5]: 1.6
ALP [5]: 888.8 IU/L
ALT [5]: 49.4 IU/L
AST [5]: 77.4 IU/L
BUN [5]: 20.8 mg/dL
CRE [5]: 0.4 mg/dL
Ca [5]: 10.8 mg/dL
Cl [5]: 103.6 meq/L
DBIL [5]: 0.094 mg/dL
GLC [5]: 187.4 mg/dL
IP [5]: 6.8 mg/dL
K [5]: 3.6 meq/L
LDH [5]: 252.8 IU/L
Na [5]: 141 meq/L
PL [5]: 149.2 mg/dL
RALB [5]: 3.5 g/dL
TBIL [5]: 0.1 mg/dL
TC [5]: 78.4 mg/dL
TG [5]: 70 mg/dL
TP [5]: 5.6 g/dL
gamma-GTP [5]: 1.4 IU/L
TERMINAL_BW [6]: 246.1 g
TERMINAL_BW [7]: 276.8 g
TERMINAL_BW [8]: 334.1 g
APTT [6]: 19.3 s
Bas [6]: 0%
Eos [6]: 0.6%
Fbg [6]: 197 mg/dL
Hb [6]: 14.1 g/dL
Ht [6]: 40.8%
Lym [6]: 86.2%
MCH [6]: 21.2 pg
MCHC [6]: 34.7%
MCV [6]: 61.1 fL
Mono [6]: 2.6%
Neu [6]: 9.6%
PT [6]: 13.6 s
Plat [6]: 106.1 x10_4/uL
RBC [6]: 667.6 x10_4/ul
Ret [6]: 4.5%
WBC [6]: 106.7 x10_2/uL
APTT [7]: 19.4 s
Bas [7]: 0%
Eos [7]: 0.8%
Fbg [7]: 200.6 mg/dL
Hb [7]: 15.2 g/dL
Ht [7]: 42.7%
Lym [7]: 85.4%
MCH [7]: 20.2 pg
MCHC [7]: 35.6%
MCV [7]: 57 fL
Mono [7]: 1.8%
Neu [7]: 10.8%
PT [7]: 13.4 s
Plat [7]: 106.3 x10_4/uL
RBC [7]: 750.2 x10_4/ul
Ret [7]: 3%
WBC [7]: 132.9 x10_2/uL
APTT [8]: 18.9 s
Bas [8]: 0%
Eos [8]: 1%
Fbg [8]: 206.2 mg/dL
Hb [8]: 14.9 g/dL
Ht [8]: 41.8%
Lym [8]: 84%
MCH [8]: 19.5 pg
MCHC [8]: 35.6%
MCV [8]: 54.7 fL
Mono [8]: 1.8%
Neu [8]: 12.6%
PT [8]: 13.3 s
Plat [8]: 101.4 x10_4/uL
RBC [8]: 763.6 x10_4/ul
Ret [8]: 4.2%
WBC [8]: 116.9 x10_2/uL
KIDNEY_L [6]: 1 g
KIDNEY_R [6]: 1 g
KIDNEY_TOTAL [6]: 2.1 g
KIDNEY_L [7]: 1.1 g
KIDNEY_R [7]: 1.2 g
KIDNEY_TOTAL [7]: 2.2 g
KIDNEY_L [8]: 1.3 g
KIDNEY_R [8]: 1.3 g
KIDNEY_TOTAL [8]: 2.6 g
LIVER [6]: 10.8 g
LIVER [7]: 11.1 g
LIVER [8]: 12.9 g
A/G [6]: 1.6
ALP [6]: 756.2 IU/L
ALT [6]: 46 IU/L
AST [6]: 74 IU/L
BUN [6]: 19.8 mg/dL
CRE [6]: 0.4 mg/dL
Ca [6]: 10.7 mg/dL
Cl [6]: 104.6 meq/L
DBIL [6]: 0.068 mg/dL
GLC [6]: 202.8 mg/dL
IP [6]: 7.2 mg/dL
K [6]: 3.4 meq/L
LDH [6]: 216.4 IU/L
Na [6]: 142.4 meq/L
PL [6]: 118 mg/dL
RALB [6]: 3.5 g/dL
TBIL [6]: 0.1 mg/dL
TC [6]: 63 mg/dL
TG [6]: 36.4 mg/dL
TP [6]: 5.7 g/dL
gamma-GTP [6]: 1.4 IU/L
A/G [7]: 1.6
ALP [7]: 776.2 IU/L
ALT [7]: 47.6 IU/L
AST [7]: 75.2 IU/L
BUN [7]: 21.2 mg/dL
CRE [7]: 0.5 mg/dL
Ca [7]: 10.7 mg/dL
Cl [7]: 103 meq/L
DBIL [7]: 0.068 mg/dL
GLC [7]: 186.2 mg/dL
IP [7]: 6.7 mg/dL
K [7]: 3.5 meq/L
LDH [7]: 196.6 IU/L
Na [7]: 141.8 meq/L
PL [7]: 122.2 mg/dL
RALB [7]: 3.7 g/dL
TBIL [7]: 0.1 mg/dL
TC [7]: 67.2 mg/dL
TG [7]: 33.8 mg/dL
TP [7]: 6.1 g/dL
gamma-GTP [7]: 1.4 IU/L
A/G [8]: 1.6
ALP [8]: 655 IU/L
ALT [8]: 44.8 IU/L
AST [8]: 68.6 IU/L
BUN [8]: 19.8 mg/dL
CRE [8]: 0.5 mg/dL
Ca [8]: 10.4 mg/dL
Cl [8]: 103.6 meq/L
DBIL [8]: 0.074 mg/dL
GLC [8]: 206.8 mg/dL
IP [8]: 6.2 mg/dL
K [8]: 3.3 meq/L
LDH [8]: 137.6 IU/L
Na [8]: 143.2 meq/L
PL [8]: 108.6 mg/dL
RALB [8]: 3.8 g/dL
TBIL [8]: 0.1 mg/dL
TC [8]: 62.2 mg/dL
TG [8]: 27.6 mg/dL
TP [8]: 6.1 g/dL
gamma-GTP [8]: 1.4 IU/L
